# Test results published in US7112680B2, “Heterocyclic hydrazones for use as anti-cancer agents” (Austria Wirtschaftsservice Gesellschaft MIT Beschrankter …, priority 2000, dated 2006).
# Where two headings read alike, the source gives them in different places.
# Assays:
# [1] = tested on: Burkitt's lymphoma (CA 46, ATCC No. CRL 1648); assay: Inhibition of tumor cell growth, MTT-assay, Burkitt's lymphoma; format: cell-based, human
# Experimental: (§1) The KB cell lines were grown in Dulbecco's modified Eagle's medium (4,5 g glucose/l). To the cultures of KB-C1 cells 1 μg of colchicine/ml, and to the hydroxyurea-resistant KB-HU cells 1 mM hydroxyurea was added every other week. […] 3,000 - 10,000 cells in 200 μl medium were seeded per well into 96-well plates. […] Approximately 10,000 cells per 100 μl were seeded in 96-well plates. […] The substances were dissolved in dimethylsulfoxide (DMSO). […] Subsequently, the samples were fixed, washed, and the absorption was determined by a microplate reader.
# [2] = tested on: HeLa (epitheloid cervix carcinoma); assay: Inhibition of tumor cell growth, SRB-assay, HeLa; format: cell-based, human
# [3] = tested on: HT-29 (colon adenocarcinoma); assay: Inhibition of tumor cell growth, SRB-assay, HT-29; format: cell-based, human
# Experimental: as §1
# [4] = tested on: KB-3-1 (human oral epidermoid carcinoma); assay: Inhibition of tumor cell growth, SRB-assay, KB-3-1; format: cell-based
# Experimental: (§2) In order to obtain information about the growth-inhibiting action on tumor cells, the inhibition of the growth of the following human tumor cells was determined: Burkitt's lymphoma (CA 46, ATCC No. CRL 1648), CCRF-CEM (acute lymphoblastic leukemia, ATCC No. CCL 119), K562 (chronic myelogenous leukemia, ATTC No. CCL 243), HeLa (epitheloid cervix carcinoma, ATCC No. CCL 2), MEXF 276L (melanoma), HT-29 (colon adenocarcinoma, ATCC No. HTB 38), KB-3-1 (human oral epidermoid carcinoma, CTCC No. CCL 17), KB-HU hydroxyurea-resistant, multidrug-resistant KB-C1 cells (Akiyama et al, Cell. Mol Genet., 11:117–126, 1985). Burkitt's, CCRF-CEM, HeLa and MEXF 276L cells were grown in RPMI 1640, HT-29 cells in McCoy's 5A medium. The KB cell lines were grown in Dulbecco's modified Eagle's medium (4,5 g glucose/l). To the cultures of KB-C1 cells 1 μg of colchicine/ml, and to the hydroxyurea-resistant KB-HU cells 1 mM hydroxyurea was added every other week. The media were supplemented with 10% fetal calf serum (except Burkitt's lymphoma cells with 15%), 2 mM glutamine, 50 units/ml penicillin and 50 μg/ml streptomycin. Inhibition of growth of HeLa, HT-29, KB and MEXF 276L cells was detected by the SRB-assay (Skehan et al, J. Natl Cancer Inst., 82:1107–1112, 1990). 3,000 - 10,000 cells in 200 μl medium were seeded per well into 96-well plates. Dose-response curves for CCRF-CEM and Burkitt's lymphoma cells were effected by an MTT-assay (Mosman, J. Immunol Methods, 65:55–63, 1983) from Boehringer Mannheim, Mannheim, Germany. Approximately 10,000 cells per 100 μl were seeded in 96-well plates. After an initial incubation of four hours, various substance concentrations were added, and the cells were incubated at 37° C. in a water-saturated atmosphere of 95% air and 5% CO2 for 72 hours. The substances were dissolved in dimethylsulfoxide (DMSO). The concentration of DMSO was 0.5%, and this was not toxic to the cells. Subsequently, the samples were fixed, washed, and the absorption was determined by a microplate reader.
# [5] = tested on: multidrug-resistant KB-C1 cells; assay: Inhibition of tumor cell growth, SRB-assay, KB-C1; format: cell-based, human
# Experimental: as §2
# [6] = tested on: KB-HU hydroxyurea-resistant cells; assay: Inhibition of tumor cell growth, SRB-assay, KB-HU; format: cell-based, human
# Experimental: as §2
# [7] = tested on: human tumor grafts (cell lines of FIG. 1); assay: Colony forming assay (two-layer soft agar); format: cell-based; conditions: for IC50 / IC90 / Mean IC70: mean values of all cell lines tested in FIG. 1, continuous exposure 3 to 6 days
# Experimental: An excellent correlation of drug response in patients and the colony forming assay has been found (Scholz et al, Eur. J. Cancer 25:901–905, 1990). Solid human tumors were grown as grafts in nude mice, removed from the latter, mechanically comminuted and subsequently incubated in an enzyme cocktail consisting of collagenase (1.2–1.8 U/ml), DNAse (375 U/ml) and hyaluronidase (29 U/ml) in RPMI 1640 medium at 37° C. for 30 minutes. The cell mixture was passed through sieves of 200 μm and 50 μm mesh size and washed thereafter twice with PBS (phosphate buffered saline). The percentage of live cells was determined using a Neubauer counting chamber and trypan blue staining.
# The colony forming assay was performed according to a two-layer agar technique introduced and modified by Hamburger and Salmon (Hamburger and Salmon, Science, 197:461–463, 1977). The bottom layer consisted of 0.2 ml of Iscoves's Modified Dulbecco's medium with 20% fetal calf serum and 0.75% agar. 8×10^3 to 1.6×10^4 cells were added to the same medium and 0.4% agar and plated in 24-multiwell plates onto the base layer. One day after the plating (with continuous exposure), the substances were added in 0.2 ml medium. Each plate included six controls containing the solvent only, and the treated groups contained 6 concentrations of the substances, each in triplicate. Cultures were incubated at 37° C. and 7% CO2 in a water-saturated atmosphere for 3 to 6 days, depending on the doubling time of the tumor cells. At the time of maximum colony formation with a size of […], counts were performed with an automatic image analysis system. 24 h prior to counting, live colonies were stained with a sterile aqueous solution of 2-(4-iodophenyl)-3-(4-nitrophenyl)-5-phenyltetrazolium chloride (1 mg/ml, 100 μl/well). The results of the tests are given in FIG. 1, and in the following Table 5, respectively. […] Columns pointing towards the right show a slighter than average activity.
# [8] = Table 1, 72 hours, read-out: IC50 Burkitts
# [9] = Table 1, 72 hours, read-out: IC50 HeLa (converted)
# [10] = Table 1, 72 hours, read-out: IC50 HT-29 (converted)
# [11] = Table 1, 72 hours, read-out: IC50 KB-3-1
# [12] = Table 1, 72 hours, read-out: IC50 KB-Cl
# [13] = Table 1, 72 hours, read-out: IC50 KB-HU
# [14] = Table 4, 72 hours, read-out: In vitro-activity against human tumor cell lines, KB-3-1
# [15] = Table 4, 72 hours, read-out: In vitro-activity against human tumor cell lines, KB-HU
# [16] = Table 4, 72 hours, read-out: In vitro-activity against human tumor cell lines, KB-C1
# [17] = Table 4, 72 hours, read-out: In vitro-activity against human tumor cell lines, Burkitts
# [18] = Table 4, 72 hours, read-out: In vitro-activity against human tumor cell lines, HeLa
# [19] = Table 4, 72 hours, read-out: In vitro-activity against human tumor cell lines, HT-29
"IC50 [2, 9]","IC50 [3, 10]","IC50 [5, 12]","IC50 [4, 14]","IC50 [6, 15]","IC50 [5, 16]",SMILES,further results
1020 nM,3690 nM,2940 nM,,,,C(=NNc1nc2ccccc2[nH]1)c1ccccn1 [Ia-1],"IC50 [1, 8]: 660 nM; IC50 [4, 11]: 1360 nM"
> 100000 nM,> 100000 nM,92000 nM,,,,CC(C)(C)C(=NNc1nc2ccccc2[nH]1)c1ccccn1 [Ia-19],
5.4 nM,50 nM,48 nM,,,,CC(=NNc1nc2ccccc2n1C)c1ccccn1 [Ia-5],"IC50 [1, 8]: 4.3 nM; IC50 [4, 11]: 44 nM; IC50 [6, 13]: 52 nM"
,,,30 nM,20 nM,100 nM,CC(=NNc1nc2ccccc2n1C)c1cc(C)ccn1 [Id-8],"tumor type selectivity ([7]; colony forming assay, IC70 pattern, FIG. 1): selectivity for colon, breast, ovarian, and uterus tumors; IC50 [7]: 102 nM; IC90 [7]: 2380 nM; Mean IC70 [7]: 317 nM"
80 nM,270 nM,,,,,Cn1c(NN=Cc2ccccn2)nc2ccccc21 [Ia-2],"IC50 [1, 8]: 30 nM"
57 nM,200 nM,830 nM,,,,CCCC(=NNc1nc2ccccc2[nH]1)c1ccccn1 [Ia-11],"IC50 [4, 11]: 500 nM; IC50 [6, 13]: 130 nM"
,,,4020 nM,4900 nM,29500 nM,CC(=NNc1nc2ccccc2n1C)c1cccc(N(C)C)n1 [Id-13],"IC50 [1, 17]: 2010 nM; IC50 [2, 18]: 6600 nM; IC50 [3, 19]: 17600 nM"
,,,260 nM,460 nM,160 nM,CC(=NNc1nc2ccccc2n1C)c1ncccc1C [Id-7],
1430 nM,1360 nM,2110 nM,,,,c1ccc(C(=NNc2nc3ccccc3[nH]2)c2ccccn2)nc1 [Ia-36],
,,,1690 nM,3890 nM,2130 nM,CC(=NNc1nc2ccccc2n1C)c1cccc(Br)n1 [Id-6],"IC50 [1, 17]: 2490 nM; IC50 [2, 18]: 3250 nM; IC50 [3, 19]: 3150 nM"
,,,,,,"CC(=NNc1nc2ccccc2n1C)c1ccc(C)cn1 [Id-9, 1-(5-Methyl-2-pyridyl)-1-ethanone-1-(1-methyl-1H-benzo[d]imidazol-2-yl)-hydrazone]","IC50 ([4]; Homo sapiens, KB 3-1, Table 4, 72 hours, read-out: In vitro-activity against human tumor cell lines, KB-3-1): 40 nM; IC50 ([6]; Homo sapiens, Table 4, 72 hours, read-out: In vitro-activity against human tumor cell lines, KB-HU): 120 nM; IC50 ([5]; Homo sapiens, KBC-1, Table 4, 72 hours, read-out: In vitro-activity against human tumor cell lines, KB-C1): 110 nM; IC50 ([7]; Homo sapiens): 199 nM; IC90 ([7]; Homo sapiens): 3790 nM; Mean IC70 [7]: 560 nM"
70 nM,510 nM,320 nM,,,,c1ccc(C(=NNc2nc3ccccc3[nH]2)C2CC2)nc1 [Ia-23],
